Assay results published in US8303962B2, “Antibacterial and antifungal peptides” (C3 Jian, Inc., priority 2009, dated 2012).
≈ marks a conversion by molar mass, not a printed value. Peptide text beside a SMILES is read from it.

Key:
Candida albicans = assay: Peptide binding to Candida albicans; settings: tested at 3.13, 6.25, 12.5 and 25.0 μM in 1× PBS or 20 mM HEPES, 150 mM NaCl, 1 mM MgCl2, 0.1% CTAB
Experimental: The peptides in Table 6 were tested for binding efficiency at 3.13, 6.25, 12.5 and 25.0 μM concentrations in 1× phosphate-buffered saline or 20 mM HEPES (4-(2-hydroxyethyl)-1-piperazineethanesulfonic acid), 150 mM sodium chloride, 1 mM magnesium chloride and 0.1% CTAB.

T. rubrum = format: cell-based, Trichophyton rubrum
Experimental: (§1) In certain embodiments the MIC assays are performed as described herein in the Examples. For each organism, the media and growth conditions utilized is detailed in Table 8.
(§2) In certain embodiments the MIC assays are performed as follows: For each organism, the media and growth conditions utilized is detailed in Table 8.

B. subtilis = format: cell-based, Bacillus subtilis
Experimental: as §1, §2

M. furfur ATCC 14521 = settings: 5 μM peptide, after 15 min of treatment, 30° C., 10^6 cells/ml, CFU vs no-peptide control
Experimental: FIG. 1. Killing kinetics of PF-S028 L and D versions against M. furfur were determined using standard time-kill methods previously detailed (Eckert et al. (2006) Antimicrob Agents Chemother., 50: 1480-1488). Briefly, a log phase culture of M. furfur ATCC 14521 was diluted to 10^6 cells/ml in ATCC medium 1072. To the reaction tubes 5 μM of either PF-S028 L or PF-S028 D were added. A reaction tube to which 4 μl of 50% methanol served as the negative control. Reaction tubes were stored at 30° C. and at indicated intervals an aliquot was removed from the reaction tube and placed in a recovery tube where peptide was removed by dilution. An aliquot from the recovery tube was plated on ATCC medium 1072 agar plates and incubated at 30° C. until visible colonies formed. Colony forming units were calculated for the negative control (no peptide), PF-S028 L, and PF-S028 D treated cultures.
In some cases killing kinetic experiments were then conducted. Killing kinetics of PF-S028 L and D versions against M. furfur were determined as described in Eckert et al. (2006) Antimicrob Agents Chemother., 50: 1480-1488. Briefly, a log phase culture of M. furfur ATCC 14521 was diluted to 10^6 cells/ml in ATCC medium 1072. To the reaction tubes 5 μM of either PF-S028 L or PF-S028 D were added. […] Colony forming units were calculated for the negative control (no peptide), PF-S028 L, and PF-S028 D treated cultures.

Compound | Target(s): form of Candida albicans bound (Candida albicans) | other results
CC[C@H](C)[C@H](NC(=O)[C@H](C)NC(=O)[C@@H]1CCCN1C(=O)[C@H](Cc1ccccc1)NC(=O)[C@@H]1CCCN1C(=O)[C@H](CC(C)C)NC(=O)[C@@H](N)C(C)C)C(=O)N1CCC[C@H]1C(=O)N[C@@H](CC(C)C)C(=O)N[C@@H](CO)C(=O)N[C@@H](CCCNC(=N)N)C(=O)N[C@@H](CCCNC(=N)N)C(=O)N[C@@H](CCCNC(=N)N)C(=O)N[C@@H](C)C(=O)N[C@@H](CS)C(=O)N[C@H](C(=O)N[C@@H](C)C(=O)N[C@@H](C)C(=O)N1CCC[C@H]1C(=O)N[C@@H](CCCNC(=N)N)C(=O)N1CCC[C@H]1C(=O)N[C@@H](CCCNC(=N)N)C(=O)N[C@@H](CO)C(=O)N[C@@H](CCCNC(=N)N)C(=O)N[C@@H](CCC(N)=O)C(=O)N[C@@H](CCCNC(=N)N)C(=O)N[C@@H](C)C(=O)N[C@@H](CO)C(=O)O)C(C)C [PF-168] (H-VLPFPAIPLSRRRACVAAPRPRSRQRAS-OH; N-terminus and C-terminus assumed) | yeast cells | 
CC(C)[C@H](NC(=O)[C@H](CCCCN)NC(=O)[C@H](Cc1c[nH]c2ccccc12)NC(=O)CNC(=O)[C@@H](NC(=O)[C@H](CC(=O)O)NC(=O)[C@H](CO)NC(=O)[C@H](Cc1c[nH]cn1)NC(=O)CNC(=O)[C@@H]1CCCN1C(=O)[C@@H](NC(=O)[C@H](CCCNC(=N)N)NC(=O)[C@H](CO)NC(=O)[C@@H](N)Cc1c[nH]c2ccccc12)C(C)C)[C@@H](C)O)C(=O)N[C@@H](Cc1c[nH]c2ccccc12)C(=O)N[C@@H](Cc1c[nH]cn1)C(=O)N[C@@H](CCCNC(=N)N)C(=O)N[C@@H](Cc1c[nH]c2ccccc12)C(=O)O [PF-547] (H-WSRVPGHSDTGWKVWHRW-OH; N-terminus and C-terminus assumed) |  | MIC (T. rubrum): 25 µM (≈ 56.9 µg/mL); MIC (B. subtilis): 25 µM (≈ 56.9 µg/mL)
CC[C@H](C)[C@H](NC(=O)[C@H](CC(N)=O)NC(=O)[C@@H](NC(=O)[C@H](Cc1ccccc1)NC(=O)[C@H](CCC(=O)O)NC(=O)CNC(=O)[C@H](CCC(N)=O)NC(=O)[C@H](Cc1ccccc1)NC(=O)[C@@H](N)CCCCN)[C@@H](C)O)C(=O)NCC(=O)N[C@@H](CCC(N)=O)C(=O)N[C@@H](CO)C(=O)N[C@@H](Cc1ccc(O)cc1)C(=O)N[C@H](C(=O)N[C@H](C(=O)N[C@@H](CO)C(=O)N[C@@H](C)C(=O)N[C@@H](CO)C(=O)N[C@@H](Cc1c[nH]cn1)C(=O)N[C@@H](CCSC)C(=O)N[C@@H](CO)C(=O)N[C@H](C(=O)N[C@@H](CO)C(=O)N[C@@H](CC(C)C)C(=O)N[C@@H](CC(N)=O)C(=O)N[C@H](C(=O)NCC(=O)N[C@@H](CCCCN)C(=O)O)[C@@H](C)O)[C@@H](C)O)C(C)C)[C@@H](C)CC [PF-583] (H-KFQGEFTNIGQSYIVSASHMSTSLNTGK-OH; N-terminus and C-terminus assumed) | hyphae | 
CC[C@@H](C)[C@@H](NC(=O)[C@H](NC(=O)[C@@H](CO)NC(=O)CN)C(C)C)C(=O)N[C@H](CCCCN)C(=O)N[C@H](CCCCN)C(=O)N[C@H](CCCNC(=N)N)C(=O)N[C@H](CCCNC(=N)N)C(=O)N[C@H](CCCCN)C(=O)N[C@H](CCCNC(=N)N)C(=O)N[C@H](CCSC)C(=O)N[C@H](CO)C(=O)N[C@H](CCCCN)C(=O)N[C@H](CCCCN)C(=O)N[C@H](CCCCN)C(=O)N[C@H](Cc1c[nH]cn1)C(=O)N[C@H](CCCNC(=N)N)C(=O)N[C@H](CCCCN)C(=O)N[C@H](CCSC)C(=O)N[C@H](CC(C)C)C(=O)N[C@H](CCCNC(=N)N)C(=O)N[C@H](CCCNC(=N)N)C(=O)N[C@@H](C(=O)N[C@H](CCCNC(=N)N)C(=O)N[C@@H](C(=O)N[C@H](CCC(N)=O)C(=O)N[C@H](CCCNC(=N)N)C(=O)N[C@H](CCCNC(=N)N)C(=O)N[C@H](CCCCN)C(=O)N[C@H](CC(C)C)C(=O)NCC(=O)N[C@H](CCCCN)C(=O)O)C(C)C)[C@H](C)O [PF-S028 D] |  | M. furfur killed (M. furfur ATCC 14521): over 99%
CC[C@H](C)[C@H](NC(=O)[C@@H](NC(=O)[C@H](CO)NC(=O)CN)C(C)C)C(=O)N[C@@H](CCCCN)C(=O)N[C@@H](CCCCN)C(=O)N[C@@H](CCCNC(=N)N)C(=O)N[C@@H](CCCNC(=N)N)C(=O)N[C@@H](CCCCN)C(=O)N[C@@H](CCCNC(=N)N)C(=O)N[C@@H](CCSC)C(=O)N[C@@H](CO)C(=O)N[C@@H](CCCCN)C(=O)N[C@@H](CCCCN)C(=O)N[C@@H](CCCCN)C(=O)N[C@@H](Cc1c[nH]cn1)C(=O)N[C@@H](CCCNC(=N)N)C(=O)N[C@@H](CCCCN)C(=O)N[C@@H](CCSC)C(=O)N[C@@H](CC(C)C)C(=O)N[C@@H](CCCNC(=N)N)C(=O)N[C@@H](CCCNC(=N)N)C(=O)N[C@H](C(=O)N[C@@H](CCCNC(=N)N)C(=O)N[C@H](C(=O)N[C@@H](CCC(N)=O)C(=O)N[C@@H](CCCNC(=N)N)C(=O)N[C@@H](CCCNC(=N)N)C(=O)N[C@@H](CCCCN)C(=O)N[C@@H](CC(C)C)C(=O)NCC(=O)N[C@@H](CCCCN)C(=O)O)C(C)C)[C@@H](C)O [PF-S028 L] |  | M. furfur killed (M. furfur ATCC 14521): 39%
AIEGVIKKGACFKLLRHEMF (Antimicrobial peptide and/or targeting peptide) [PF-167] | yeast cells | 
DLRKAK (Antimicrobial peptide and/or targeting peptide) [PF-024] | hyphae | 
EILNNNQVIKELTMKYKTQFESNLGGWTARARR (Antimicrobial peptide and/or targeting peptide) [PF-580] | hyphae | 
EVYSSPTNNVAITVQNN (Antimicrobial peptide and/or targeting peptide) [PF-178] | hyphae | 
GGTKEIVYQRG (Antimicrobial peptide and/or targeting peptide) [1T-68] | yeast cells | 
GVGIGFIMMGVVGYAVKLVHIPIRYLIV (Antimicrobial peptide and/or targeting peptide) [PF-770] | hyphae | 
HARAAVGVAELPRGAAVEVELIAAVRP (Antimicrobial peptide and/or targeting peptide) [1T-65] | hyphae | 
HSSHL (Antimicrobial peptide and/or targeting peptide) [PF-060] | hyphae | 
KLRSASKKSLQEKSCGIMPEKPAG (Antimicrobial peptide and/or targeting peptide) [PF-206] | hyphae | 
LVRLA (Antimicrobial peptide and/or targeting peptide) [PF-636] | hyphae | 
MIHLTKQNTMEALHFIKQFYDMFFILNFNV (Antimicrobial peptide and/or targeting peptide) [PF-040] | hyphae | 
MPKARPVNHNKKKSKITIKSNFTLFYMFNP (Antimicrobial peptide and/or targeting peptide) [PF-634] | hyphae | 
NILFGIIGFVVAMTAAVIVTAISIAK (Antimicrobial peptide and/or targeting peptide) [PF-543] | hyphae | 
NRQAQGERAHGEQQG (Antimicrobial peptide and/or targeting peptide) [1T-70] | yeast cells | 
RFFNFEIKKSTKVDYVFAHVDLSDV (Antimicrobial peptide and/or targeting peptide) [PF-051] | hyphae | 
RLARGRPTNLCGRRG (Antimicrobial peptide and/or targeting peptide) [PF-170] | yeast cells | 
RLTSNQFLTRITPFVFAQH (Antimicrobial peptide and/or targeting peptide) [PF-176] | yeast cells | 
SKFELVNYASGCSCGADCKCASETECKCASKK (Antimicrobial peptide and/or targeting peptide) [PF-761] | hyphae | 
VVRRFQGM (Antimicrobial peptide and/or targeting peptide) [PF-141] | hyphae | 
VYRHLRFIDGKLVEIRLERK (Antimicrobial peptide and/or targeting peptide) [1T-36] | hyphae | 
